Key:
Format in all cases: cell-based, human
PC3M cells = assay: Soft agar colony formation assay (anchorage independent growth)
Protocol: Compound 2 was tested for its ability to affect anchorage independent growth in a soft agar assay, a stringent method to detect malignant transformation of cells in vitro.

[1] = tested on: PC3M reporter cell line stably expressing PTB-GFP (ATP levels); assay: ATP quantitation assay (ATPLite); conditions: Table 4, PC3M cells, 24 hrs
Protocol: This follow-up assay was conducted to measure the effect of compounds on cell health by measuring ATP levels (ATPLite™). ATPLite™ is an ATP monitoring system based on firefly (Photinus pyralis) luciferase. The level of ATP in a metabolically active cell is a general marker for its viability. ATP levels are often reduced during necrosis or apoptosis. In this assay, the luciferase enzyme catalyzes the conversion of the added substrate D-luciferin to oxyluciferin and light with ATP. Thus, the emitted light is proportional to the ATP concentration. For this assay, the highly metastatic PC3M reporter cell line stably expressing the PTB-GFP was provided by Professor Sui Huang of Northwestern University. The media and cell culture reagents were purchased from Invitrogen (Carlsbad, Calif.), ATPLite™ came from PerkinElmer.

[2] = tested on: PNC prevalence in PC3M cell line stably expressing GFP-PTB; assay: High content assay for PNC detection (reduction of PNC prevalence); conditions: Table 4; PC3M GFP-PTB cells, 16 hrs
From the text: The quantitative output for this assay is the reduction of PNC prevalence. The PNC can be detected in living cells by the expression of a green fluorescent protein (GFP) tagged to the PNC localized protein, PTB. A PC3M cell line was used that stably expresses GFP-PTB to mark PNCs. This method eliminates the need for immunofluorescent staining.
The IN Cell Analyzer 1000 automated fluorescent imaging system (GE Healthcare, Piscataway, N.J.) was used for automated image acquisition. […] The instrument acquired images of each well in a 1536-well plate with a laser-based autofocus system. To score PNC prevalence in a high-content throughput, the Multi-Target Analysis (MTA) algorithm (GE Healthcare, Investigator v3.5) to identify individual cells and granules (PNCs) within these cells was used. The nucleus was segmented via a region growing method (50 μm^2 minimum area) with light shading and noise removal to allow “touching” nuclei to be separated. […] For this particular assay, PNC-positive cells were scored when 1 to 3 PNC granules were detected per nucleus. Cells that contained 0 granules were scored as PNC negative, and cells with >3 granules were assumed to be false positives (very few cells have more than 3 PNCs in one focus plane), and were also scored as PNC negative.

Row | ATP IC50 [1] | PNC IC50 [2] | SMILES | cell viability (PC3M cells; soft agar assay, 3.8, 18.6 nM) | number of colonies (anchorage independent growth) (PC3M cells; soft agar, after 14 days, 3.8, 18.6 nM)
1 |  |  | N=c1c2c(-c3ccccc3)c(-c3ccccc3)n(Cc3ccccc3)c2ncn1[C@H]1CC[C@H](O)CC1 [Compound 2, trans-4-(7-Benzyl-4-imino-5,6-diphenyl-4,7-dihydro-3H-pyrrolo[2,3-d]pyrimidin-3-yl)cyclohexanol] | no impact on cell viability | dose dependent reduction in the number of colonies
2 | inactive | inactive | COC(=O)C[C@H](C(=O)OC)n1ncc2c(c(-c3ccccc3)cn2Cc2ccc(Br)cc2)c1=N [Compound 114] |  | 

From patent publication US9877966B1, “Combination therapy for the inhibition of metastasis and tumorigenesis” (priority 2015, dated 2018)
